Data on 1 compound can be found in US12564568B2, “PKC pathway in Parkinson's Disease” (CEDARS-SINAI MEDICAL CENTER, priority 2018, dated 2026).

In series [1] the test system is α-synuclein. Description: α-synuclein protein level in day 30 iPSC-derived mDA (DaN) cultures after drug treatment (western blot, immunostaining). It counts as cell-based, human. As for the experimental part:
iPSC maintenance, mDA neuron differentiation and drug treatments: iPSCs were maintained in E8 media on Matrigel and passaged every 5 days at split ratios from 1:6 to 1:12 as needed using Versene. Only iPSCs between passage 17 and passage 35 were used in this study. For differentiation, iPSCs were grown to ˜80% confluency. Cells were singularized with Accutase (Millipore/Sigma #SCR005) (5 minutes at 37° C.) and plated onto Matrigel-coated 6-well plates (BD Biosciences) at 200K cells per cm^2 (for a fully confluent monolayer) in E8 media with 5 μM Y27632 (StemGent). 24 hours after plating, media was changed to Stage 1 (50% DMEM/F12, 50% Neurobasal, N2, B27-Vitamin A, LDN-193189 (LDN), SB431542 (SB)). Stage 1 media was changed each day (3 mL per well) for 3 days. Media was next switched to Stage 2 (50% DMEM/F12, 50% Neurobasal, N2, B27-Vitamin A, LDN, SB, Purmorphamine (PMN), CHIR99021 (CHIR), Sonic hedgehog (SHH), Fibroblast Growth Factor 8 (FGF8)). Stage 2 media was changed each day (3 mL per well) for 4 days. Media was then switched to Stage 3 (50% DMEM/F12, 50% Neurobasal, N2, B27-Vitamin A, LDN, CHIR, all-trans-Retinoic acid (ATRA)). Stage 3 media was changed each day (3 mL per well) for 4 days. Finally, media was switched to Stage 4 (50% DMEM/F12, 50% Neurobasal, N2, B27+Vitamin A, Brain-Derived Neurotrophic Factor (BDNF), Glial Cell Line-Derived Neurotrophic Factor (GDNF), dibutyryl cyclic-AMP sodium salt (dbCAMP), L-Ascorbic Acid (AA), γ-Secretase inhibitor (DAPT), CHIR, Transforming Growth Factor beta-3 (TGF β3)). Stage 4 media was changed each day (3 mL per well) for 3 days. On day 15, cells were dissociated to single cells using Accutase (20 mins at 37° C.) and gently lifted. Dissociated cells were resuspended in Maturation Medium (50% DMEM/F12, 50% Neurobasal, N2, B27+Vitamin A, BDNF, GDNF, dbCAMP, AA, DAPT, TGF3) plus 5 μM Y27632 and reseeded onto Matrigel-coated 6-well plates at 200 k/cm^2 in 1 mL total volume or onto Matrigel-coated L-glass coverslips in a 24-well plate at 200 k/50 μL drop. Cells were allowed to attach for 45 mins at 37° C. and Maturation Medium was then added to final volumes of 3 mL per well for 6-well plates or 1.5 mL per well for 24-well plates with coverslips. A full medium change was performed 48-hours post-seeding and medium was changed every 3 days until day 30. For drug treatments, cells at day-27 were fed with Maturation Medium containing the indicated drug and cells were analyzed at day 30.
Immunocytochemistry and imaging: mDA neuron cultures were plated on L-glass coverslips and grown as above. Day 30 neurons were fixed in 4% PFA at room temperature for 10-15 mins. Fixed coverslips were washed in PBS and permeabilized for 10 minutes at room temperature in 1% Triton X-100 in PBS, followed by staining in primary antibody solution (5% normal donkey serum, 0.125% Triton-X, PBS) overnight at 4° C. with the following antibodies: TH (1:5000, Immunostar #22941) and α-synuclein (1:500, Abcam #ab138501). Samples were washed 3 times in PBS and stained with species-specific Alexa Fluor 488 or 594-conjugated secondary antibodies (1:500, Invitrogen) for 2 hours at room temperature, followed by DAPI counterstain. Confocal Z-stack images were acquired using a A1 microscope (Nikon) with 40× and 20× objectives and rendered using maximum intensity projection through IMARIS software (Bitplane).
Western blot: Cells were gently scraped off the plates, washed with PBS, centrifuged at 15000 RPM for 1 min, and dry pellets were frozen at −80° C. Samples were then thawed and lysed using 1×NETN buffer (20 mM Tris-HCl (pH 8.0), 100 mM NaCl, 0.5 mM EDTA and 0.5% NP-40) supplemented with phosphatase/protease inhibitor cocktail (MS-SAFE, Sigma-Aldrich). Lysates were sonicated in an automated cold bath sonicator for 20 mins using alternating 10 sec pulses followed by 10 sec rests. Samples were centrifuged for 20 min at 4° C. at 15000 RPM. Total soluble protein concentrations were measured using a Bradford assay (BIO-RAD). […]

The next series concerns LAMP1. Description: LAMP1 level in day 30 mDA cultures after PEP005 (western blot). It counts as cell-based, human. On the technique in general: A western blot detects proteins with antibodies after separation by electrophoresis.
The next series concerns LC3. Kind of series: LC3 level in day 30 DaNs after PEP treatment (western blot). It counts as cell-based, human. Particulars: PD cells.
The test system of another series is DaN cultures. Description: LDH on drug treatment of DaN cultures. Format: cell-based, human. From the text:
It is likely that the toxicity of PEP is more specific to highly proliferative cells whereas the Inventors' differentiated neurons are largely post mitotoic.

For a further series, the system named is synuclein. Description: Injection into the ventricles of WT mice, synuclein in striatum. Format: in vivo, mouse. Particulars: 0.3, 3, and 30 uM injected into ventricles of WT mice; 1 and 5 days post injection. As to the method:
In vivo, PEP stimulates synuclein degradation. Dosage studies of 0.3, 3, and 30 uM PEP was injected into the ventricles of WT mice.

Series [2] is described as follows: In vitro blood plasma binding, rat. Format: in vitro ADME. An excerpt: (§1) This may complicate IV delivery.
Series [3] can be described thus: In vitro blood plasma binding, rabbit. Format: in vitro ADME.
Excerpt: as §1

Series [4] in a line: IV bolus dose study, cardiovascular effects in mini-pig. It counts as in vivo. Particulars: doses up to 5 ug/kg (highest tested). From the text:
In multiple IV bolus dose studies, the following was observed.

A short description of series [5]: Dose ranging study in mini-pig. Particulars: pigs. Format: in vivo. As for the experimental part:
For dose ranging studies in rat and mini-pig. Repeated doses up to 15 ug/kg/day for 7 days were tolerated in rats, 5 ug/kg in pigs

Series [6] in a line: Repeat dose tox study in mini-pigs. Format: in vivo, mini-pig. Particulars: 5 ug/kg dose IV approximately 1x/week, intake recovered afterwards. As for the experimental part: In a repeat dose tox study in rats—animals were given up to 10 ug/kg/day for 7 days by IV tail vein injection. […] In a repeat dose tox study in mini-pigs—animals were given up to 5 ug/kg/day IV approximately 1×/week.

For series [7], the system named is α-synuclein. Kind of series: α-synuclein protein level in day 30 iPSC-derived mDA (DaN) cultures after drug treatment (western blot, immunostaining). Format: cell-based, human. Particulars: in vitro, single 24-hour dose.
Series [8] deals with α-synuclein. Description: Unilateral striatal injection in wild-type C57BL/6 mice, α-synuclein in striatum (western blot, IHC). Particulars: 215 ng dose, 3 days post-treatment.

Entries after “also recorded” stand apart in the source; their conditions may differ. Where only a bound is given, the exact number is not on record here.

Consider `C/C=C(/C)C(=O)O[C@H]1C(C)=C[C@]23C(=O)[C@@H](C=C(CO)[C@@H](O)[C@]12O)[C@H]1[C@@H](C[C@H]3C)C1(C)C` [PEP005, ingenol-3-angelate], for which the “α-synuclein levels (western blot)” value in the series on α-synuclein [1] (EOSPD/PD cultures (190iPD), treated 3 days from day 27, PEP005 1 μM, SMER-28 5 μM, Trehalose) was “substantially reduced”; in the series on α-synuclein [1] (both control and PD cultures / all treated lines, PEP005 1 μM, 3 days), “reduced; also recorded: decrease; also recorded: rapid reduction”. Moreover, the α-synuclein by immunostaining result with α-synuclein [1] (PEP005-treated mDA cultures) is “decreased”. Further, the “amount of α-synuclein protein (western blot)” value in the series with α-synuclein [1] (control line cultures (02iCTR), treated 3 days from day 27, PEP005 1 μM, SMER-28 5 μM, Trehalose) was “significantly reduced”. Moreover, in the series with α-synuclein [1] (dose response study, low doses), the “α-synuclein at low PEP005 doses” value is recorded as “robust reduction”. The “time until α-synuclein is degraded in response to drug treatment” value in the series on α-synuclein [1] (time-course, control and PD cultures) is not above 24 h. The LAMP1 protein entry was “does not appear to be replicated” in the series with LAMP1 (PD cells treated with PEP005); “neither LAMP1 nor LC3 respond” with LAMP1 (PD cells treated with PEP005, listed as PEP); “increase” with LAMP1 (control and PD cells / all iPSC lines, 1 μM PEP005 for 3 days); “increase” with LAMP1 (control cells treated with PEP005). The LC3 response result in the series on LC3 was “neither LAMP1 nor LC3 respond”. Also, the “LDH on drug treatment” value in the series on DaN cultures is “nor do the Inventors see an increase”. Moreover, the “synuclein in mouse striatum” value in the series with synuclein was “Reduction”. For the same compound, the plasma binding entry in series [2] and in series [3] was “highly efficient plasma binding” throughout. Further, the cardiovascular changes result in series [4] is given as “no notable cardiovascular changes”. In addition, the “clinical or behavioral effects” value in series [4] was “no adverse clinical or behavioral effects”. The same compound came in with a tolerated repeated dose in series [5] not above 5 µg/kg. For the same compound, in [6], the food intake result is on record as “lower food intake the following day”. The “duration for which synuclein levels remained depressed” value in the series with α-synuclein [7] worked out at 168 h. Besides, the “α-synuclein levels in striatum, injected (L) relative to contralateral side (R)” value in the series on α-synuclein [8] is on record as “significantly reduced; also recorded: reduces”.
